Data set [1] has as its system Plasmodium falciparum Dd2 asexual blood stage parasites. Briefly: microbe, parasite or virus in culture. Also on record: species or system Plasmodium falciparum Dd2 in human erythrocytes; single determination (one 11-point concentration-response curve). To be noted: Plasmodium falciparum, DD2, Erythrocyte, 72 h; read-out: AC50.
A further data set in a line: in vitro. To be noted: human.
Setting [2] is: HepG2-A16-CD81EGFP cells, uninfected.

In general, AC50 refers to the concentration giving half of the maximal activity seen. As a reminder, the viability is a read-out of living cells in per cent, often relative to untreated cells. As for `CCN1CCN(Cc2ccc(NC(=O)c3cc(NC(=O)C(=O)c4c[nH]c5ccccc45)cc(OC)c3)cc2C(F)(F)F)CC1` [MLS003105970-01], in data set [1], the AC50 was found to be 668 nM. Moreover, in “in vitro” (setting [2]), the viability at 66 h was found to be 105%.
`COc1ccc(CN2CCCC(C(=O)c3ccc(Cl)cc3)C2)c(O)c1` (stereo not shown) [MLS000998855-01]: in data set [1], the AC50 stood at 531 nM. Also, in the data set “in vitro”, the viability at 48 h, 1 µM is 101% and the viability at 48 h, 3 µM stood at 103%.
On to `O=C(Nc1ccc(C2=NCCN2)cc1)c1ccc(C(=O)Nc2ccc(C3=NCCN3)cc2)c([N+](=O)[O-])c1` [MLS000737369-01], for which, in data set [1], the half-maximal activity concentration (AC50) came to 237 nM. Moreover, in the data set “in vitro” (setting [2]), the viability at 48 h, 1 µM is 94% and the viability at 48 h, 3 µM worked out at 85%.
In the same order, the values of `COc1ccc(-c2oc3ccccc3c2C#Cc2cncn2C)cc1` [MLS002402884-01] are 1060 nM, 112% and 95%.
In the same order, the values of `COc1ccc(C(CCN2CCN(c3ccccc3)CC2)c2c(O)cc(OC)cc2OC)cc1` (stereo not shown) [MLS000879538-01] are 944 nM, 95% and 95%.
In the same order, the values of `Cc1cc(Nc2ccccc2)nc2cc(O)ccc12` [MLS000586979-01] are 422 nM, 100% and 100%.
In the case of `Oc1ccccc1CN1CCCC(N2CCN(c3cccc(C(F)(F)F)c3)CC2)C1` (stereo not shown) [MLS000998830-01], the AC50 in data set [1] turned out to be 1330 nM. Moreover, in the data set “in vitro” (setting [2]), the viability at 48 h, 1 µM was found to be 103% and the viability at 48 h, 3 µM turned out to be 105%.
Turning to `O=c1c2ccccc2nc(/C=C/c2cc(Br)ccc2O)n1CCCO` [MLS001197097-01], the AC50 in data set [1] worked out at 9440 nM. The viability at 66 h in the data set “in vitro” (setting [2]) came to 103%.
Turning to `O=C(NCCCNc1ccnc2cc(Cl)ccc12)c1ccccc1F` [MLS001215856-01], in data set [1], the half-maximal activity concentration (AC50) amounted to 841 nM. Also, in the data set “in vitro” (setting [2]), the viability at 48 h, 1 µM is 85% and the viability at 48 h, 3 µM turned out to be 88%.
As for `CCOC(=O)c1cnc2ccc(OC)cc2c1Nc1ccc(N2CCN(C)CC2)cc1` [MLS001164177-01], the AC50 in data set [1] was found to be 1680 nM. Besides, in the data set “in vitro” (setting [2]), the viability at 48 h, 1 µM was 98% and the viability at 48 h, 3 µM was 94%.
For `COc1ccc(NC2=C(c3ccc(OC)cc3)C(=O)c3ccccc32)cc1` [MLS000562793-01], in that order: 5960 nM, 91% and 90%.
With `CN(C)c1cc[n+](CC(=O)c2cccs2)cc1` [MLS001207444-01], the AC50 in data set [1] was determined as 6680 nM. Moreover, the viability at 66 h in the data set “in vitro” (setting [2]) amounted to 101%.
In the same order, the values of `COc1ccc([S+](=O)([O-])Nc2ccc(C)n(CC(=O)Nc3ccccc3)c2=O)cc1` [NCGC00430934-01] are 2660 nM and 103%.
As to `CCSc1nc2sc3c(c2c(=O)n1-c1ccccc1)CCN(C)C3` [MLS001212076-01], the half-maximal activity concentration (AC50) in data set [1] turned out to be 6680 nM. In “in vitro” (setting [2]), the viability at 48 h, 1 µM was 104% and the viability at 48 h, 3 µM was determined as 103%.
For the compound `Cc1ccc(NC(=O)CC[S+](=O)([O-])c2cc(Br)cc3c2N(C(=O)C2CC2)CC3)cc1` [NCGC00107230-01], the AC50 in data set [1] was 2370 nM. The viability at 66 h in the data set “in vitro” (setting [2]) is 101%.
Turning to `COc1ccc(CN2CCCC(N3CCc4ccccc4C3)C2)c(O)c1` (stereo not shown) [MLS001001490-01], in data set [1], the AC50 came out at 2990 nM. In the data set “in vitro” (setting [2]), the viability at 48 h, 1 µM turned out to be 84% and the viability at 48 h, 3 µM was 89%.
For the compound `CCOC(=O)c1nc2cc3n(c(CC(C)C)c-2c1C)CC(C)=C3C` [MLS000594428-01], in data set [1], the AC50 was 7500 nM. Besides, in the data set “in vitro” (setting [2]), the viability at 48 h stood at 108% and the viability at 48 h, 1 µM is 108%.
With `CCCn1cc(SCC(=O)NCc2ccco2)c2ccccc21` [MLS000095681-01], the concentration at half-maximal activity (AC50) in data set [1] amounted to 8410 nM. For the same compound, in the data set “in vitro” (setting [2]), the viability at 48 h, 1 µM was 90% and the viability at 48 h, 3 µM was 87%.
For `CCOCc1cnc(C)nc1NCC(=O)c1c(C)[nH]c2cc(C)ccc12` [MLS000595215-01], in that order: 4220 nM, 97% and 94%.
